From patent US20260224566A1, “Obicetrapib and Ezetimibe Combination Treatment and Fixed Dose Pharmaceutical Compositions” (NewAmsterdam Pharma B.V., priority 2023, published 2026)

How the values were obtained:
[1] = tested on: ApoE*3-Leiden.CETP transgenic mice; assay: Example 12: plasma lipids, VLDL clearance, LDL receptor, fecal and biliary sterols in ApoE*3-Leiden.CETP mice; assay type: in vivo, mouse
Excerpt: Obicetrapib is a selective cholesteryl ester transfer protein (CETP) inhibitor currently in clinical development for the treatment of hypercholesterolemia and reduction of cardiovascular risk that strongly reduces Apolipoprotein B (ApoB) and low-density lipoprotein cholesterol (LDL-C) and concomitantly increases plasma high-density lipoprotein cholesterol (HDL-C). Ezetimibe reduces absorption of biliary and dietary cholesterol from the small intestine, thereby reducing LDL-C levels. The current study was carried out to elucidate the mechanism of action responsible for the observed decrease in non-HDL-C by obicetrapib monotherapy and in combination with ezetimibe in a translational mouse model for hyperlipidemia and atherosclerosis.
The experimental protocol is illustrated in FIG. 71, with time (t) measured in weeks. Female ApoE*3-Leiden.CETP transgenic mice were fed a Western diet with 0.05% w/w cholesterol (equivalent to daily human intake) with (i) no drug (control), or the same diet containing (ii) obicetrapib alone (2 mg/kg/day), (iii) ezetimibe alone (1 mg/kg/day) or (iv) the combination of obicetrapib and ezetimibe. In the experiment, the effects of the treatments on, amongst other things, plasma blood lipids and fecal bile acids and sterols were determined.

[2] = TA-8995-04, healthy volunteers; cited from earlier work
Lp(a) = conditions: TA-8995-06, 12 weeks of treatment; cited from earlier work
[3] = obicetrapib 2 mg/kg/day, ezetimibe 1 mg/kg/day in Western diet

CCOC(=O)N1c2ccc(C(F)(F)F)cc2[C@@H](N(Cc2cc(C(F)(F)F)cc(C(F)(F)F)c2)c2ncc(OCCCC(=O)O)cn2)C[C@H]1CC [obicetrapib, {4-[(2-{[3,5-bis(trifluoromethyl)benzyl] [(2R,4S)-1-(ethoxycarbonyl)-2-ethyl-6-(trifluoromethyl)-1,2,3,4-tetrahydroquinolin-4-yl]amino}pyrimidin-5-yl)oxy]butanoic acid}]
triglycerides levels ([1]; FIG. 74): decreased | liver uptake of VLDL like particles ([1]; FIG. 77): increased | plasma pcsk-9 levels ([1]; FIG. 78): decreased | cholesterol balance ([1]; FIG. 81): decreased | biliary bile acids and biliary bile acid flow ([1]; not shown): did not affect | biliary phospholipids and biliary phospholipid flow ([1]; not shown): did not affect | fecal bile acid excretion, change ([1]; obicetrapib 2 mg/kg/day in Western diet): +41% | ApoA1 levels, increase [1, 3]: 98% | HDL-C, change [1, 3]: +260% | half-life of VLDL-like particles, change [1, 3]: −44% | hepatic LDL receptor expression, change [1, 3]: +63% | non-HDL-C levels, change [1, 3]: −61% | total plasma cholesterol levels, change [1, 3]: −42% | effect on the QTcF [2]: no effect | Lp(a) levels (Lp(a)): statistically significant reduction
